Data reported in publication PMC11106165, “Repurposing the KCa3.1 Blocker Senicapoc for Ischemic Stroke” (Translational Stroke Research, 2023).
Read-outs that look alike come from different tables or passages of the source.

What was measured:
[1] = humans; cited from earlier work
[2] = system: MMC (mouse microglial cell line); test: RT-qPCR of inflammatory markers in LPS-stimulated MMC; assay type: cell-based; details: 24 h 100 ng/mL LPS
Experimental: An immortalized mouse microglial cell (MMC) line was kindly provided by Dr. D.T. Golenbock (University of Massachusetts Medical School, Worcester, MA) and previously used by our laboratory. Cells were cultured in Gibco’s Dulbecco’s modified Eagle’s Medium (DMEM, high glucose, L-glutamine, high pyruvate) with 5% CO2 at 37° with 1% penicillin/streptomycin and 10% fetal bovine serum. For the qPCR experiments, cells were seeded at 200,000 cells/mL; 24 h later, medium was changed to DMEM with 2% FBS and cells were stimulated with 100 ng/mL lipopolysaccharide (LPS), in the presence or absence of senicapoc, or a 0.2% DMSO control. Cells were pre-incubated with senicapoc for 1 h prior to stimulation and harvested 24 h after stimulation.
After MRIs were completed, mice were euthanized with an overdose of isoflurane, brains harvested, split into ipsilateral and contralateral hemispheres, and immediately frozen with liquid N2. Brain hemispheres were homogenized in mortar and pestles with liquid N2. RNA was extracted from brain homogenates (Fig. 7b) or MMC cell pellets (Fig. 2) with Trizol (ThermoFisher, Catalog # 15,596,026) according to the manufacturer’s protocol. RNA purity and concentration were assessed using a Nanodrop Spectrophotometer ND-1000 (Marshall Scientific). The 260 nm/280 nm absorption ratios for the samples ranged from 1.95 to 2.00. Subsequently, a cDNA library was made with a High-Capacity cDNA Reverse Transcription Kit (ThermoFisher Scientific, Catalog# 4,374,967), with 2 µg of total RNA per […]. Reactions were carried out in a PTC-200 Peltier Thermal Cycler; the conditions were as follows: 25 °C for 10 min, 37 °C for 120 min, 85 °C for 5 min, with final storage at 4 °C. RT-qPCR reactions were conducted in an Applied Biosystems Viia7 Real-Time PCR System using Maxima SYBR Green/ROX qPCR Master Mix (ThermoFisher Scientific, Catalog #K022) and with the recommended three-step cycling protocol. […] Fold change was calculated by the ∆∆Ct method. […]

[3] = parameters: method as in PMID 31019997; details: mice; cited from earlier work
[4] = system: male C57BL/6 J mice, tMCAO; test: Immunohistochemistry (Iba-1, CD3, NeuN) of infarcted hemisphere on day 8 after MCAO; assay type: in vivo, mouse
Source text: After the MRI on day 8, animals were euthanized with an overdose of isoflurane, and brains were quickly removed and sectioned into four 2-mm-thick coronal slices starting from the frontal pole. […] Cell nuclei were visualized with 4′,6-diamidino-2-phenylindole (DAPI).
The images were then opened on the BZ-X Analyzer, the left (infarcted) hemisphere for each section extracted and analyzed with a macro within the “Hybrid Cell Count” feature of the BZ-X Analyzer program. Images were thresholded to exclusively the area of stained cells without considering artifacts, ventricles, or folds. Each macro-generated image was verified by careful visual inspection. Results for Iba1 and CD3 are reported as percentage of section area (µm^2) that was positively stained, divided by total section area (µm^2) in the infarcted left hemisphere. NeuN is reported as the inverse of the percentage of section area (µm^2) that was positively stained, divided by total section area (µm^2) in the infarcted left hemisphere in order to quantify the Neu negative area.

[5] = system: MMC (mouse microglial cell line); test: Fluo-4 calcium imaging of ATP-induced Ca2+ signaling in MMC; assay type: cell-based; details: 100 µM ATP, Fluo-4 ΔF/F
Experimental: Real-time changes of [Ca^2+]i in MMCs seeded on glass coverslips at a density of 10,000 cells/cm^2 were measured using the time-lapse imaging module on a BZ-X780 fluorescence microscopy (Keyence LLC, Campbell, CA) and the fluorescent calcium indicator Fluo-4/AM from Invitrogen (ThermoFisher, Waltham, MA) as previously described. For testing the effect of KCa3.1 inhibition on intracellular calcium changes, cells were pre-incubated with senicapoc during the de-esterification step and throughout the course of the experiment. All fluorescence measurements were made at 2-s intervals at room temperature from subconfluent areas of the coverslips to ensure that only individual microglia were measured. Image data were analyzed off-line with Fiji using the ROI-1 click tool and the change in microglial [Ca^2+]i was represented as ΔF/F (change in fluorescence after baseline-subtraction).

SMILES: NC(=O)C(c1ccccc1)(c1ccc(F)cc1)c1ccc(F)cc1 [senicapoc]
- half-life [1]: 288 h
- induction of inflammasome component NLRP3 [2]: prevented induction
- mRNA levels of iNOS and COX-2 [2]: significantly reduced
- mRNA expression of IL-1β, TNF-α, IL-6 and IL-10 ([2]; 1 h pre-incubation): concentration-dependently reduced
- half-life [3]: 1 h
- neuronal death (NeuN-negative area) [4]: decreases neuronal death
- T cell infiltration (CD3 staining) ([4]; 40 mg/kg): significantly reduced
- microglia/macrophage activation and infiltration (Iba1 staining) ([4]; 40 mg/kg): significantly reduced
- Ca2+ influx induced by ATP [5]: concentration-dependently reduced
